This is an account of results in patent US9927437B2, “Treating neurodegenerative disease” (THE BRIGHAM AND WOMEN'S HOSPITAL, INC., priority 2013, dated 2018).

One series has as its system T cells. The experiment in a line: T-cell response in EAE mice (recall proliferation, cytokines, polarization). To be noted: for T-cell response: NOD EAE, daily Miglustat. In kind it is in vivo, mouse. As for the experimental part:
FIGS. 9a-d. Depletion of reactive astrocytes reduces the recruitment of peripheral leukocytes to the CNS. (a-d). EAE was induced in WT or GFAP^TK F1 hybrid mice and Ganciclovir (GCV) or vehicle control (PBS) was administered as in FIG. 1b. Data are representative of three independent experiments with n≥7 mice/group (means and s.e.m.). (a) Effect of GCV administration on reactive astrocytes detected by GFAP staining (b) Recruitment of monocytes (red gate) and lymphocytes (green gate) to the CNS assessed by FACS. Data are representative of three independent experiments. Statistical analysis by Student's t-test. (c, d) Effect of the depletion of reactive astrocytes during the chronic phase of EAE on the recall proliferative response to MOG(35-55) or anti-CD3 (c) and the expression of IFN-γ, IL-17A, Foxp3 and IL-10 in splenic CD4+ T cells (d). *P<0.05, and (n.s) not significant.
FIGS. 12a-i. […] (a) Naïve C57BL/6 (Left panel) and NOD (right panel) mice were treated with LacCer (10 μg per mouse) or vehicle as indicated by red arrows, and EAE clinical scores was recorded. At experimental end point (day 25), astrocytes were isolated and their transcriptional profile was determined by nCounter Nanostring analysis. (b-e) EAE was induced in C57BL/6 (b, c) or NOD mice (d, e) and LacCer or vehicle were administrated as in FIGS. 1g and 1h, respectively. Splenic T-cell recall response to MOG(35-55) (20 μg/ml); proliferation (b, d) and secretion of IL-17A, IFN-γ and IL-10 cytokines (c, e). Data are representative of two independent experiments with ≥8 mice/group (mean and s.e.m.). (f-i) EAE NOD mice were treated with PDMP or vehicle during the chronic phase as in FIG. 1K. Data are representative of three independent experiments with n≥8 mice/group (mean and s.e.m.). (f) qPCR analysis of the expression of tbx21, ifng, rorc, il17A, csf2, il10, foxp3, and tgfb1 mRNA of CD3^+CD4^+ T-cells isolated from the CNS; expression is presented relative to gapdh. (g, h) Recall response to MOG(35-55) (20 μg/ml); proliferation (g) and secretion of IL-17A, IFN-γ and IL-10 cytokines (h). (i) Expression of IFN-γ, IL-17A, Foxp3 and IL-10 by splenic CD3^+CD4^+ T cells (mean and s.e.m.).
Splenocytes and lymph node cells were cultured in X-VIVO medium and were plated for 72 h at a density of 5×10^5 cells per well in the presence of MOG35-55 peptide. During the final 16 h, cells were pulsed with […] [3H]thymidine (PerkinElmer), followed by collection on glass fiber filters and analysis of incorporated [3H]thymidine in a-counter (1450 MicroBeta TriLux; PerkinElmer). Supernatants were collect after 48 h of culture for cytokine measurement by enzyme-linked immunosorbent assay^14. For intracellular cytokine staining, cells were stimulated for 6 h with PMA (phorbol 12-myristate 13-acetate; 50 ng/ml; Sigma), ionomycin (1 μg/ml; Sigma) and monensin (GolgiStop; […]; BD Biosciences). After staining of surface markers, cells were fixed and made permeable according to the manufacturer's instructions BD Cytofix/Cytoperm™ Kit (BD Biosciences), or Foxp3 Fixation/Permeabilization (Ebiosceince).

In another series the test system is reactive astrocytes. The experiment in a line: EAE in F1 NOD C57BL/6 GFAP-HSV-TK hybrid mice, depletion of reactive astrocytes. In kind it is in vivo, mouse.
For the next series, the system named is EAE NOD mice. The experiment in a line: EAE in NOD mice, progressive phase (clinical score, histopathology, body weight). In kind it is in vivo. The note with it: NOD EAE; for body weight: daily Miglustat.
Another series deals with primary astrocytes. The experiment in a line: Activation of cultured primary astrocytes, mRNA expression. In kind it is cell-based, mouse. The note with it: primary mouse astrocytes activated with LPS/IFNγ; Miglustat. The protocol: FIGS. 3a-m. LacCer produced by B4GALT6 acts in an autocrine manner to boost astrocyte activation. Cultured astrocytes were pre-treated for 1 h with PDMP (25 μM), LacCer (10 μM), both (LacCer+PDMP), or vehicle (vehicle), followed by activation with lipopolysaccharide (100 ng/ml) and Interferon-γ (100 Units/ml) (LPS/IFNγ) or left un-treated (control). (a) Heatmap depicting mRNA expression, as detected by Nanostring nCounter analysis, in astrocytes stimulated with LPS/IFNγ. Representative data of three independent experiments. (b) Histogram presentation of the normalized gene expression presented in (a), statistical analysis by one-way ANOVA followed by Tukey post-hoc analysis. (c-i) The expression of B4galt5 (shB4galt5), B4galt6 (shB4galt6) or non-targeting shRNA (ShControl) in C8-D30 astrocytes was knocked-down using verified shRNA (n≥4). (c) qRT analysis of B4galt5 and B4galt6 mRNA expression. (d-f) astrocytes were activated as in (a) and mRNA expression for (d) H2-Aa, (e) Ccl5 and (f) Cxcl10 was determined; expression is presented relative to house keeping gene (Gapdh) (n≥4). (g) Schematic map of the astrocyte-specific shRNA lentiviral vector. […] NOD mice were injected i.c.v. with 1×10^7 IU of shControl, shB4galt5 or shB4galt6 lentivirus, at day 35 after EAE induction (progressive phase). n=10 mice per group (h, i) 10 days after i.c.v. injection experiment was terminated and (h) b4galt5 and b4galt6 expression levels were determined by qPCR in astrocytes isolated from naïve or EAE NOD mice; expression normalized to gapdh and presented relative to that of cells from naïve mice. Representative data of two independent experiments, Statistical analysis by one-way ANOVA, followed by Tukey post-hoc analysis. (i) LacCer levels were quantified of in the CNS of naïve or EAE NOD mice treated as shown in (j). Statistical analysis by one-way ANOVA, followed by Tukey post-hoc analysis. (j) EAE clinical scores. Representative data of two independent experiments. Statistical analysis as in (FIG. 1a). (k) Cultured primary astrocytes were pre-treated for 1 h with PDMP (25 μM), LacCer (10 μM), both (LacCer+PDMP), or vehicle control (vehicle), followed by activation with LPS/IFNγ for 45 min, or left un-treated (control, Con). IRF-1 and Lamin B expression in the nuclear fraction analyzed by western blot and the degree of IRF-1 translocation to the nucleus was assessed by the ratio between the expression of IRF-1 and Lamin-B in the nuclear fractions following densitometric quantification on four independent experiments (right panel). Statistical analysis by one-way ANOVA, followed by Tukey post-hoc analysis. (l) ChIP analysis of the interaction of NF-κB, and IRF-1 with the) nos2 promoter in primary cultured astrocytes. Experimental design and data analysis as in (FIG. 4c). Data from two independent experiments (m) qPCR analysis of the expression of nos2, csf2, ccl2, ccl5, il6, and tlr2 in astrocyte cultures established from WT or IRF-1 deficient (IRF-1 KO) mice, pre-treated with LacCer or vehicle, and activated with LPS/IFNγ. […]
FIGS. 14a-g. […] (a) Cultured astrocytes were pre-treated for 1 h with PDMP (25 μM), LacCer (10 μM), both (LacCer+PDMP), or vehicle control (vehicle), followed by activation with LPS/IFNγ for 6 h, or left un-treated (control, Con). mRNA expression was analyzed 6 h following activation. qPCR analysis of the expression of cc/5, csf2, nos2, il6, H2-Aa, and tlr2 presented relative to gapdh. […]

For the next series, the system named is inflammatory monocytes. The experiment in a line: Recruitment of inflammatory monocytes to the CNS of EAE NOD mice (flow cytometry). The class given is in vivo, mouse. To be noted: daily Miglustat from onset of progressive phase.

“Also recorded” adds a separate entry of the source.

For `Nc1nc(O)c2ncn(COC(CO)CO)c2n1` [GCV, Ganciclovir], in the series with T cells (GFAP-TK F1 mice, GCV during progressive phase), the “peripheral T-cell response” value is given as “did not affect”. The “EAE scores, astrocyte depletion during the progressive phase” value with reactive astrocytes (25 mg/kg daily s.c. days 30-50) is recorded as “significant amelioration of EAE”. Moreover, in the series with reactive astrocytes (25 mg/kg daily s.c. from 7 days before induction until day 15), the “EAE scores, astrocyte depletion during the acute phase” value is on record as “significant worsening of EAE”. Also, the “leukocyte infiltration in the CNS” value with reactive astrocytes (treatment during progressive phase, FACS) is listed as “decreased leukocyte infiltration”.
For `CCCCN1C[C@H](O)[C@@H](O)[C@H](O)[C@H]1CO` [Miglustat, N-butyl-deoxynojirimycin], the body weight entry in the series on EAE NOD mice was “does not affect body weight”; in the series on EAE NOD mice (listed as miglustat), “did not affect”. In addition, the “clinical course of EAE disease progression” value in the series on EAE NOD mice (daily from onset of progressive phase, oral 1800 or 600 mg/kg, or nasal 900 mg/kg twice a day) was “suppressed the clinical course of disease progression; also recorded: halts chronic EAE progression”. In addition, the T-cell response result in the series with T cells is reported as “does not affect T-cell polarization”; in the series with T cells (listed as miglustat) it was “did not affect”. Further, the astrocyte activation result in the series on primary astrocytes is on record as “inhibits astrocyte activation”. Also, in the series on inflammatory monocytes, the “recruitment of inflammatory monocytes to the CNS” value is recorded as “reduced the recruitment; also recorded: reduces monocytes recruitment”.
